This note sets out measurements from PubChem BioAssay AID1996.

For orientation: solubility (kinetic) means solubility judged after dilution from a stock solution rather than from solid.

Values after ≈ are worked out from the molar mass of the structure shown.

The conditions of the data set: buffer; pH 7.4; 200.0 µM.
Regarding `O=C(OCc1c(F)cccc1Cl)c1cnc(Cl)c(Cl)c1`, the solubility (kinetic) was < 0.7 µg/mL.

With `Cc1noc(C)c1COc1ccccc1C(=O)NC1CCC(C)CC1` (configuration not stated), the solubility (kinetic) is > 51.4 µg/mL.

Turning to `CC(C)CN1CCN(Cc2cccn2-c2cccnc2)CC1CCO` (configuration not stated), the kinetic solubility came out at 28.8 µg/mL (≈ 84.1 µM).

Take `O=C(NC1CCOc2ccccc21)c1ccc(Cl)nc1` (configuration not stated): the solubility (kinetic) was > 43.3 µg/mL.

For the compound `C=CCn1cccc(C(=O)Nc2ccc(F)cc2)c1=O`, the solubility (kinetic) is > 40.8 µg/mL.

Compound `Clc1ccc(SCc2csc(N3CCOCC3)n2)cc1` displayed a solubility (kinetic) of 10.2 µg/mL (≈ 31.2 µM).

Compound `CCOc1ccccc1N1CCN(C(=O)c2ccc3nc(N)sc3c2)CC1` came in with a kinetic solubility of 7.5 µg/mL (≈ 19.6 µM).

`COc1ccc2nc(NC(=O)C34CC5CC(CC(NC(C)=O)(C5)C3)C4)sc2c1` had a kinetic solubility of 41.2 µg/mL (≈ 103 µM).

`Cc1cccc(NC(=O)c2cccc(C(=O)Nc3cccc(C)c3C)n2)c1C`: the solubility (kinetic) turned out to be 1.1 µg/mL (≈ 2.95 µM).

For `Cc1ccc(CC(C(=O)O)C(C)C(=O)Nc2ccc(F)cc2)cc1` (configuration not stated), the solubility (kinetic) is > 49.4 µg/mL.

`Cc1ccc(C)c(NC(=O)NCCN2CCCCC2)c1` gave a kinetic solubility of 35.6 µg/mL (≈ 129 µM).

`O=C(CN1C(=O)NC2(CCCCCC2)C1=O)NCc1ccc(F)cc1`: the kinetic solubility is > 52.1 µg/mL.

`Cc1ccc(NC(=O)CN(C)C(=O)COC(=O)c2ccc(NC(=O)CC#N)cc2)cc1`: the solubility (kinetic) amounted to 36 µg/mL (≈ 85.2 µM).

`O=C(CN1C(=O)NC2(CCCCCC2)C1=O)c1ccccc1`: the kinetic solubility was > 45.1 µg/mL.

`Cc1nc(CN(C)Cc2nc(Cc3cccc(F)c3)no2)cs1`: the solubility (kinetic) is > 49.9 µg/mL.

Turning to `Cl.O=C(OCCN1CCCCC1)c1ccccc1F`, the kinetic solubility was > 43.2 µg/mL.

In the case of `Cc1cccc(-c2noc(CCC(=O)NC3CCCC3)n2)c1`, the kinetic solubility was > 44.9 µg/mL.

On to `O/N=C1\CCCc2c1nc(-c1ccccc1F)n2O`, for which the solubility (kinetic) is > 39.2 µg/mL.

Compound `CC(C)Cc1ccc(C(C)NC(=O)c2ccc(=O)[nH]c2)cc1` (configuration not stated) gave a solubility (kinetic) of 10 µg/mL (≈ 33.5 µM).

Take `Cc1cccn2cc(-c3ccc4c(c3)NC(=O)CO4)nc12`: the kinetic solubility was 7.9 µg/mL (≈ 28.3 µM).

As for `O=C(NCc1ccc2c(c1)OCO2)NC12CC3CC(CC(C3)C1)C2`, the solubility (kinetic) was found to be 1.3 µg/mL (≈ 3.96 µM).

Turning to `O=C1c2cccc3c([N+](=O)[O-])ccc(c23)C(=O)N1O`, the kinetic solubility was > 38.7 µg/mL.

`CSc1ncccc1C(=O)OCC(=O)N1CC2(C)CC1CC(C)(C)C2` (configuration not stated): the kinetic solubility was > 54.4 µg/mL.

`CC1CCCN(C(=O)CCCC(=O)N2CCCC(C)C2)C1` (configuration not stated): the solubility (kinetic) is > 44.2 µg/mL.

The compound `CCOc1ccccc1OCCCC(=O)Nc1cc(S(=O)(=O)N2CCOCC2)ccc1OC` displayed a solubility (kinetic) of 11.1 µg/mL (≈ 23.2 µM).

In the case of `C/C(=N\O)c1ccc(Cl)cc1Cl`, the solubility (kinetic) was 22.9 µg/mL (≈ 112 µM).

In the case of `CC(=O)c1cccc(NC(=O)C(NC(C)C)c2ccccc2)c1` (configuration not stated), the solubility (kinetic) was > 46.6 µg/mL.

On to `CN1CCN(CC#Cc2ccccc2)CC1CCO` (configuration not stated), for which the solubility (kinetic) is > 38.8 µg/mL.

`O=C(/C=C/c1ccccc1Cl)Nc1ccccc1` displayed a solubility (kinetic) of 0.6 µg/mL (≈ 2.33 µM).

`O=C(Nc1cccc(O)c1)C1CC(c2c(F)cccc2Cl)=NO1` (configuration not stated) yielded a kinetic solubility of 29.5 µg/mL (≈ 88.1 µM).

Take `CC(=O)OCC[N+](C)(C)C.[Cl-]`: the kinetic solubility is > 27.2 µg/mL.

In the case of `O=C(Nc1ccc2c(c1)Cc1ccccc1-2)c1ccccc1F`, the kinetic solubility was < 0.6 µg/mL.

The compound `Cc1ccc(C)c(NC(=O)C2CC3CCC2C3)c1` (configuration not stated) returned a solubility (kinetic) of 10.6 µg/mL (≈ 43.6 µM).

In turn, `Cc1c(C(=O)OCC(=O)NC(C)c2ccccc2)oc2ccccc12` (configuration not stated) had a solubility (kinetic) of 4.4 µg/mL (≈ 13 µM).

For `O=C(CNC(=O)c1ccccc1)OCC(=O)c1ccccc1Cl`, the kinetic solubility is > 49.8 µg/mL.

For `COc1ccc(C=O)cc1CN1C(=O)c2ccccc2C1=O`, the solubility (kinetic) amounted to 36.8 µg/mL (≈ 125 µM).

Turning to `COc1ccccc1C(c1c(O)nc(SC)[nH]c1=O)c1c(O)nc(SC)[nH]c1=O`, the kinetic solubility was > 65.2 µg/mL.

Turning to `COc1ccc([N+](=O)[O-])cc1Nc1c2ccccc2nc2ccccc12`, the solubility (kinetic) was < 0.2 µg/mL.

`CC(C)N(CC(N)=O)c1ncnc2sc(-c3ccccc3)cc12` came in with a solubility (kinetic) of 10.4 µg/mL (≈ 31.9 µM).

The compound `CC(NC(=O)C(=O)Nc1nccs1)c1ccccc1` (configuration not stated) displayed a kinetic solubility of 35.4 µg/mL (≈ 129 µM).

The compound `Cc1ccc(C)c(S(=O)(=O)c2c(C)cc(C)nc2Cl)c1` returned a solubility (kinetic) of 27 µg/mL (≈ 87.1 µM).

As for `O=C(CCNC(=O)c1ccccc1Cl)NCC1CCCO1` (configuration not stated), the solubility (kinetic) was > 46.6 µg/mL.

Take `COc1ccccc1NC(=O)NC1(C(=O)N2CCCCC2)CCCCC1`: the solubility (kinetic) turned out to be 10 µg/mL (≈ 27.8 µM).

For the compound `CC(C)c1ccc(CNc2ncccn2)cc1.O=C(O)C(=O)O`, the solubility (kinetic) was 31.3 µg/mL.

With `CCN(CC)C(=S)Nc1c(C)n(C)n(-c2ccccc2)c1=O`, the solubility (kinetic) is > 47.8 µg/mL.

For `Cc1oc(C)c(S(=O)(=O)NCc2cccs2)c1C(=O)O`, the solubility (kinetic) was > 47.3 µg/mL.

For `CCc1ccc(C)c(OC(=O)c2cncc(Br)c2)c1`, the kinetic solubility amounted to 2.1 µg/mL (≈ 6.56 µM).

For `COCCOC(=O)C1=C(C)NC(=S)NC1c1cccs1` (configuration not stated), the kinetic solubility is > 46.9 µg/mL.

On to `O=C(O)c1ccccc1NS(=O)(=O)c1ccc2ccccc2c1`, for which the kinetic solubility is > 49.1 µg/mL.

In the case of `O=C1CCCN1CCCNS(=O)(=O)c1cccc(F)c1`, the solubility (kinetic) was > 45.1 µg/mL.

For the compound `CC[n+]1c(C)n(-c2ccccc2)c2ccc(NC(C)=O)cc21.[I-]`, the kinetic solubility was > 63.2 µg/mL.

In turn, `Cn1cnc2c1c(=O)n(Cc1cccc(F)c1)c(=O)n2C` displayed a kinetic solubility of 30.8 µg/mL (≈ 107 µM).
